Among the data in PMC10530293, “Supramolecular multivalency effects enhance imine formation in aqueous medium allowing for dynamic modification of enzymatic activity” (Chemical Science, 2023) are IC50 values, retold here.

This assay has as its target T1, carbonic anhydrase (CA) from bovine erythrocytes (Bos taurus, UniProt P00921).
T1 construct: gene CA2; native full-length enzyme from bovine erythrocytes, N-terminal Ser1, 18 Lys
The assay can be described thus: UV monitoring of 4-nitrophenyl acetate hydrolysis (esterase activity). The class given is biochemical. Conditions: read-out: apparent IC50.

T1 sequence (P00921 2-260): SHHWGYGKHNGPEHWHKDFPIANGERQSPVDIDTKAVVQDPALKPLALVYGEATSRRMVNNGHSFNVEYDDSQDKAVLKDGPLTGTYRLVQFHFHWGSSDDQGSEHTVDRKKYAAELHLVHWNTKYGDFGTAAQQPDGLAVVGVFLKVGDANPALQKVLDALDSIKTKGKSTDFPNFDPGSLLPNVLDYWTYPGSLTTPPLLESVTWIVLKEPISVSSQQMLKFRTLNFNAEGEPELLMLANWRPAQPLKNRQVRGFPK

As to `O=Cc1c(F)c(F)c(SC[C@H](NC(=O)OCc2ccccc2)C(=O)O)c(F)c1F` [A8], the IC50 is approximately 1 µM.
